Results reported in patent US10208056B2, “Condensed tricyclic compounds as protein kinase inhibitors” (FUNDACIÓN DEL SECTOR PÚBLICO ESTATAL CENTRO NACIONAL DE …, priority 2015, dated 2019).
Read-outs that look alike come from different tables or passages of the source.

Assays:
[1] = system: SW620; assay: In vitro cell proliferation assay (CellTiter-Glo), SW620; type: cell-based, human; details: Homo sapiens, SW-620, growth inhibition, read-out: GI50 SW620
[2] = system: Molm13; assay: In vitro cell proliferation assay (CellTiter-Glo), Molm13; type: cell-based; details: Homo sapiens, MOLM-13, growth inhibition, read-out: GI50 Molm13
[3] = target: CDK8/Cyclin C (Homo sapiens (Human), UniProt P49336); assay: CDK8/Cyclin C binding assay (LanthaScreen Eu-Kinase Binding Assay); details: binding assay
Chain of CDK8/Cyclin C (P49336 whole entry): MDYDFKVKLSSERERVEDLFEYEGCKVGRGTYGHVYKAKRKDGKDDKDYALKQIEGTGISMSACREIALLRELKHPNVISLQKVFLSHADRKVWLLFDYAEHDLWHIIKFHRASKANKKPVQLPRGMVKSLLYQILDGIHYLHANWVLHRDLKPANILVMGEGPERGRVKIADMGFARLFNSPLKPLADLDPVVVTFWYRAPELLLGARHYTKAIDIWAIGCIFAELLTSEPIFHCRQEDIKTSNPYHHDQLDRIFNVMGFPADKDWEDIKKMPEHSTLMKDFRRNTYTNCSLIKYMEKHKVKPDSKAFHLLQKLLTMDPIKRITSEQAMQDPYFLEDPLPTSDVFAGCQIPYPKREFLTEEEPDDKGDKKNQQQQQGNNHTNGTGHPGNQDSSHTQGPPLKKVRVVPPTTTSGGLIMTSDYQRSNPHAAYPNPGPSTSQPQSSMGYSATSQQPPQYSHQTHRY
Chain of CDK8/Cyclin C (P24863 whole entry partner): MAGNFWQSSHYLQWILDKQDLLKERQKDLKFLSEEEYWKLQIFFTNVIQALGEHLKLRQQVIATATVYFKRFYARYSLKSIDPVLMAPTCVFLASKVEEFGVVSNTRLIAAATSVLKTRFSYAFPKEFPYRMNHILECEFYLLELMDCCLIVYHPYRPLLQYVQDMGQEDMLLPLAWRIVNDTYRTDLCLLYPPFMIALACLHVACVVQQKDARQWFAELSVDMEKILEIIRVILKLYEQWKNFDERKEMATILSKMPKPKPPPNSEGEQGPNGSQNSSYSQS
Experimental: The enzyme has been purchase from Invitrogen (PV4402) as a dimer of full-length His-tagged recombinant human proteins.
Assays were performed in 384-well plates. The final read out was generated using an EnVision plate reader (Perkin-Elmer).

[4] = system: MV4:11; assay: In vitro cell proliferation assay (CellTiter-Glo), MV4:11; type: cell-based; details: Homo sapiens, MV4-11, growth inhibition, read-out: GI50 MV4:11
[5] = target: T1, intracellular HASPIN (Homo sapiens (Human), UniProt Q8TF76); assay: Cellular HASPIN inhibition assay, western blot phospho H3T3 in synchronized SW620 cells; type: cell-based; details: read-out: SW620 PH3(T3) in synchronized cells
T1 sequence (Q8TF76 whole entry): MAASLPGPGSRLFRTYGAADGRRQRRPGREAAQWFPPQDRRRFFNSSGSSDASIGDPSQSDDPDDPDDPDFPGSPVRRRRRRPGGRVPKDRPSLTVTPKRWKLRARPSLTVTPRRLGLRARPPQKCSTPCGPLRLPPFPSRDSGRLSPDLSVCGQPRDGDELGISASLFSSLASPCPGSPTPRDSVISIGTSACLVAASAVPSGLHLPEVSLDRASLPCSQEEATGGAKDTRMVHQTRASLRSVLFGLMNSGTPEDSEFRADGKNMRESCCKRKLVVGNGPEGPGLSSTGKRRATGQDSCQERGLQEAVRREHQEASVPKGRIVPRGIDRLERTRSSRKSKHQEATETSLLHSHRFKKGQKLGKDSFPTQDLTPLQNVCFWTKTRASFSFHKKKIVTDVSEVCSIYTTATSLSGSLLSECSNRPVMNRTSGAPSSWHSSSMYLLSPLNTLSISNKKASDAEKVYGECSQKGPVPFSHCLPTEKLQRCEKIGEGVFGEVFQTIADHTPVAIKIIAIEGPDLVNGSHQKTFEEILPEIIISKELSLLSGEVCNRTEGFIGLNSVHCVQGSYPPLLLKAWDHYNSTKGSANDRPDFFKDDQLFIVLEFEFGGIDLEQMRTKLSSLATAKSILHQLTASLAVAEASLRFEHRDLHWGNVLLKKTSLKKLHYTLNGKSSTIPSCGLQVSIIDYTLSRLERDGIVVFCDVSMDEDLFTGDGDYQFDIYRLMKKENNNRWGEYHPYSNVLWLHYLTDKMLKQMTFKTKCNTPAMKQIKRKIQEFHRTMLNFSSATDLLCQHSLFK

[6] = target: intracellular CDK8 (Homo sapiens (Human), UniProt P49336); assay: Endogenous phosphoSTAT1 inhibition in SW620 cells growing in 10% FBS; type: cell-based; details: read-out: SW620 P-STAT1(S727)
Chain of intracellular CDK8 (P49336 whole entry): as the sequence (P49336 whole entry) above
Chain of intracellular CDK8 (P24863 whole entry partner): as the sequence (P24863 whole entry partner) above
Chain of intracellular CDK8 (Q93074 whole entry partner): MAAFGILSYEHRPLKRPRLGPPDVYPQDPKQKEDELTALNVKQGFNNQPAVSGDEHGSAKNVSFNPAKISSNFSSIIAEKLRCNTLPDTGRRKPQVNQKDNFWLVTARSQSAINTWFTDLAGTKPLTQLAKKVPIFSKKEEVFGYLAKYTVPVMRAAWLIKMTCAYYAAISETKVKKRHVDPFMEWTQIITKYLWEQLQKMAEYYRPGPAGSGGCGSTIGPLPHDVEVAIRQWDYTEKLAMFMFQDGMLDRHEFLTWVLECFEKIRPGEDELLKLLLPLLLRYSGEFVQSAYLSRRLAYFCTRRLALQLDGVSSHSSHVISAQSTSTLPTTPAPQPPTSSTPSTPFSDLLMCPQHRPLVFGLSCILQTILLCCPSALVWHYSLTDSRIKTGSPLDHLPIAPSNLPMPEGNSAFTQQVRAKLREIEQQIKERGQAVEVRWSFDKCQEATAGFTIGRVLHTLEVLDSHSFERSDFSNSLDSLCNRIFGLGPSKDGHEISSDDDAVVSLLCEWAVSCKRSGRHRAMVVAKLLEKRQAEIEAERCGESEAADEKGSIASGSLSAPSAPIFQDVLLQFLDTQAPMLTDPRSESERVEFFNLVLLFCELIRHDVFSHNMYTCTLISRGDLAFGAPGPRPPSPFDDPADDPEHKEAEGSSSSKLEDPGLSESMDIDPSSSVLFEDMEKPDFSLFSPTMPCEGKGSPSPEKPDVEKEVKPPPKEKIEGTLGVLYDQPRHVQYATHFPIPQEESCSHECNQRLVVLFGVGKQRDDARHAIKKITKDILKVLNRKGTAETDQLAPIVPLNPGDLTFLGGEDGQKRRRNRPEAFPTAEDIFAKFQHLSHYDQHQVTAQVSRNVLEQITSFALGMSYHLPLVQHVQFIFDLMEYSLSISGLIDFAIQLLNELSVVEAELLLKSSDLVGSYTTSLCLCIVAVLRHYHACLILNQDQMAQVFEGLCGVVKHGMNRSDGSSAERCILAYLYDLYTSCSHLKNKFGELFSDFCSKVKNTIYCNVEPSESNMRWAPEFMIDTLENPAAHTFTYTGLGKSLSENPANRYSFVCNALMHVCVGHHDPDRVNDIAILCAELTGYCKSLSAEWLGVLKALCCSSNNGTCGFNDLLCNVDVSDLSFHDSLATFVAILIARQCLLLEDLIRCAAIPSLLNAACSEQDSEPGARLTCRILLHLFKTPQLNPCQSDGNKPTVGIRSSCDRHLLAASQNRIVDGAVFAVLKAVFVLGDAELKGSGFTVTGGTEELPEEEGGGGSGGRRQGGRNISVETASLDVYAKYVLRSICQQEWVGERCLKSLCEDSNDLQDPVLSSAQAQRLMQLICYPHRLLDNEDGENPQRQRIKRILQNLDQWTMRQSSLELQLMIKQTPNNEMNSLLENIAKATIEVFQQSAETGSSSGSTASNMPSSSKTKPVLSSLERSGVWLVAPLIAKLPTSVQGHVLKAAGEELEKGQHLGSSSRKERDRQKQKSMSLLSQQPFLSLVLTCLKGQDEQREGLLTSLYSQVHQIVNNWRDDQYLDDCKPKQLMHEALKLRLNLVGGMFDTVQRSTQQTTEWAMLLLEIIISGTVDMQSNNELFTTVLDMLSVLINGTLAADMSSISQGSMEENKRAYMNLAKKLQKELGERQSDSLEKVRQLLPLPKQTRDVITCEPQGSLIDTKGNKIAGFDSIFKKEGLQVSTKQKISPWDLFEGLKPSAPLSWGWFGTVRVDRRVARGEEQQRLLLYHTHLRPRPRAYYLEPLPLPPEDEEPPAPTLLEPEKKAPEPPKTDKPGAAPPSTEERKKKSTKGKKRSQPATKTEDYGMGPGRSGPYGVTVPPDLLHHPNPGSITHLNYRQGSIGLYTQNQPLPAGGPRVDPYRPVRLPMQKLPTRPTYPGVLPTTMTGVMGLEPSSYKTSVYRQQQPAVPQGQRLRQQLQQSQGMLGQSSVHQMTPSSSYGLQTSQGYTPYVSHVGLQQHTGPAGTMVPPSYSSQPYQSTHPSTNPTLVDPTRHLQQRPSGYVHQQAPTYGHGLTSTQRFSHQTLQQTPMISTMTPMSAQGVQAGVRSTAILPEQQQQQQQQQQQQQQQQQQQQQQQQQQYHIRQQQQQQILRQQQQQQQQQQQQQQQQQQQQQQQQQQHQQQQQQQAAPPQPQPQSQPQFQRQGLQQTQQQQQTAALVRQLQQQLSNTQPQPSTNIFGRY
Summary of the method: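 SW620 cells in 10% FBS treated 8 h with compound, then lysed and phospho-STAT1 measured relative to total STAT1.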

[7] = target: T1, intracellular HASPIN; assay: Endogenous phosphoH3 inhibition in SW620 cells growing in 10% FBS; type: cell-based; details: read-out: SW620 pH3(T3)
Experimental: Endogenous phosphoH3 inhibition can be screened in cells growing in 10% FBS. Cells are plated as described before and treated for 8 h with compounds as described before. Then cells are lysated and phospho H3 evaluated as described before. The percentage of phosphorylated H3 vs total H3 in cells treated with DMSO is taken as hundred percent of phosphorylation. The percentage of H3 phosphorylation is finally plotted against concentration for each compound and EC50s for intracellular HASPIN inhibition are calculated using ActivityBase from IDBS.

Compound | GI50 ([1]; semiquantitative) [µM] | GI50 ([2]; semiquantitative) [µM] | IC50 [3] [µM] | GI50 ([4]; semiquantitative) [µM] | EC50 ([5]; semiquantitative) [µM] | GI50 ([1]; quantitative) [µM] | GI50 ([2]; quantitative) [µM] | GI50 ([4]; quantitative) [µM] | EC50 ([6]; quantitative) [µM] | EC50 ([5]; quantitative) [µM] | EC50 ([7]; quantitative) [µM] | EC50 ([6]; semiquantitative) [µM] | EC50 ([7]; semiquantitative) [µM]
NC(=O)c1cc2c([nH]1)-c1ccncc1O[C@H]2C1CCOCC1 (single isomer, unassigned) [Example 72] | 10 to 100 | 1 to 10 | 0.00446 | 1 to 10 | 0.5 to 10 | – | – | – | – | – | – | – | –
CCn1c(C(N)=O)cc2c1-c1ccncc1OC2(C)C [Example 43] | – | – | 0.00141 | – | – | 3.39 | 0.349 | 0.115 | 0.0015 | 0.015 | 0.0016 | – | –
CCn1c(C(N)=O)c(-c2ccccc2OC)c2c1-c1ccncc1OC2(C)C [Example 68] | 10 to 100 | < 1 | 0.00323 | < 1 | < 0.5 | – | – | – | – | – | – | < 0.5 | < 0.5
CC1(C)Oc2cnccc2-c2c1cc(C(N)=O)n2CCF [Example 52] | 1 to 10 | < 1 | 0.00141 | < 1 | < 0.5 | – | – | – | – | – | – | < 0.5 | < 0.5
